Test results taken from the NIST ThermoML archive (doi:10.1016/j.jct.2015.04.034).

Legend:
[1] = 298.15 K; 101.33 kPa; Liquid; Vibrating tube method
[2] = excess molar enthalpy (molar enthalpy of mixing); xn = mol fraction of the nth substance listed; details: 101 kPa, Liquid, Flow calorimetry

CC1(C)C(=O)[C@]2(C)CC[C@H]1C2 [(-)-fenchone]
Details | mass density [kg/m3]
[1] | 940.67

CC1(C)C(=O)[C@]2(C)CC[C@H]1C2 [(-)-fenchone] + CC(C)O
excess molar enthalpy [kcal/mol], [2]
Details | 283.15 K | 298.15 K | 313.15 K | 328.15 K
x1 = 0.049 | 0.0619 | 0.0681 | 0.0727 | 0.0739
x1 = 0.097 | 0.117 | 0.13 | 0.138 | 0.14
x1 = 0.192 | 0.204 | 0.222 | 0.235 | 0.241
x1 = 0.292 | 0.26 | 0.287 | 0.306 | 0.316
x1 = 0.392 | 0.292 | 0.326 | 0.349 | 0.362
x1 = 0.499 | 0.302 | 0.338 | 0.364 | 0.378
x1 = 0.598 | 0.294 | 0.328 | 0.354 | 0.367
x1 = 0.697 | 0.263 | 0.294 | 0.316 | 0.326
x1 = 0.792 | 0.212 | 0.234 | 0.251 | 0.257
x1 = 0.899 | 0.116 | 0.13 | 0.141 | 0.144
x1 = 0.947 | 0.066 | 0.0743 | 0.0796 | 0.0817

CC1(C)C(=O)[C@]2(C)CC[C@H]1C2 [(-)-fenchone] + CCCO
excess molar enthalpy [kcal/mol], [2]
Details | 283.15 K | 298.15 K | 313.15 K | 328.15 K
x1 = 0.049 | 0.0459 | 0.0526 | 0.0578 | 0.0612
x1 = 0.098 | 0.0875 | 0.1 | 0.11 | 0.117
x1 = 0.193 | 0.154 | 0.175 | 0.191 | 0.204
x1 = 0.292 | 0.2 | 0.228 | 0.251 | 0.269
x1 = 0.397 | 0.232 | 0.267 | 0.293 | 0.315
x1 = 0.493 | 0.243 | 0.28 | 0.309 | 0.331
x1 = 0.592 | 0.239 | 0.277 | 0.305 | 0.326
x1 = 0.691 | 0.218 | 0.251 | 0.275 | 0.293
x1 = 0.805 | 0.167 | 0.19 | 0.206 | 0.217
x1 = 0.897 | 0.0975 | 0.114 | 0.125 | 0.131
x1 = 0.951 | 0.05 | 0.0574 | 0.0626 | 0.0657

CCCO [propan-1-ol]
Details | mass density [kg/m3]
[1] | 799.56

CC(C)O [propan-2-ol]
Details | mass density [kg/m3]
[1] | 781.2
